Reference: ChEMBL document CHEMBL1139242, “Peptide deformylase inhibitors of Mycobacterium tuberculosis: synthesis, structural investigations, and biological results” (Bioorg Med Chem Lett, 2008)
Converted amounts (≈) assume the structure as drawn.

target: T1, Peptide deformylase (Mycobacterium tuberculosis, UniProt P9WIJ3); test: Inhibition of Mycobacterium tuberculosis peptide deformylase expressed in Escherichia coli M15(pREp4) by microplate assay; conditions: not given
T1 sequence (P9WIJ3 whole entry): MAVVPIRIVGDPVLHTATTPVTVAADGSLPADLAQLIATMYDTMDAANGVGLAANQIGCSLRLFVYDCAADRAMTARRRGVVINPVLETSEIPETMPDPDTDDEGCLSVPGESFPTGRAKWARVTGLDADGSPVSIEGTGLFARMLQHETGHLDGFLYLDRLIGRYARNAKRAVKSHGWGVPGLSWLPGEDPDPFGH

Going from CCCC[C@H](CN(O)C=O)C(=O)N1CCC[C@H]1c1nc2ccccc2[nH]1 to CCCCC[C@H](CN(O)C=O)C(=O)N1CCC[C@H]1c1nc2ccccc2[nH]1, the IC50 rises from 10 nM to 15 nM (1.5-fold).

O=CN(O)C[C@@H](CC1CC1)C(=O)N1CCC[C@H]1c1nc2ccccc2o1 and CCC[C@H](CN(O)C=O)C(=O)N1CCC[C@H]1c1nc2ccccc2o1 are within 1.5-fold of each other in IC50: 21 nM for the first, 28 nM for the second.

Compared with CCCC[C@H](CC(=O)O)C(=O)N1CCC[C@H]1c1nc2ccccc2o1, CCCC[C@H](C(=O)NO)C(=O)N1CCC[C@H]1c1nc2ccccc2o1 is 16-fold lower in IC50: 803 nM for the first, 49 nM for the second.

First: CCCC[C@H](C(=O)NO)C(=O)N1CCC[C@H]1c1nc2ccccc2[nH]1
Second: CCCC[C@H](CC(=O)O)C(=O)N1CCC[C@H]1c1nc2ccccc2[nH]1
The IC50 of the first is 11-fold lower: 18 nM for the first, 202 nM for the second.

Going from CCCCC[C@H](CN(O)C=O)C(=O)N1CCC[C@H]1c1nc2ccccc2o1 to CCC[C@H](CN(O)C=O)C(=O)N1CCC[C@H]1c1nc2ccccc2[nH]1, the IC50 rises from 13 nM to 24 nM (1.8-fold).

Going from O=CN(O)C[C@@H](Cc1ccccc1)C(=O)N1CCC[C@H]1c1nc2ccccc2[nH]1 to O=CN(O)C[C@@H](Cc1ccccc1)C(=O)N1CCC[C@H]1c1nc2ccccc2o1, the IC50 rises from 68 nM to 161 nM (2.4-fold).

Molecule O=CN(O)C[C@@H](CC1CC1)C(=O)N1CCC[C@H]1c1nc2ccccc2[nH]1 has an IC50 of 8 nM.

system: Mycobacterium tuberculosis; test: Antitubercular activity against Mycobacterium tuberculosis H37Rv after 14 days by turbidimetric assay; format: functional; conditions: 336 h

CCCC[C@H](CN(O)C=O)C(=O)N1CCC[C@H]1c1nc2ccccc2[nH]1 and CCCC[C@H](CN(O)C=O)C(=O)N1CCC[C@H]1c1nc2ccccc2o1 are within 1.5-fold of each other in MIC: 0.1 µg/mL (≈ 0.279 µM) for the first, 0.15 µg/mL (≈ 0.417 µM) for the second.

Going from O=CN(O)C[C@@H](CC1CC1)C(=O)N1CCC[C@H]1c1nc2ccccc2o1 to O=CN(O)C[C@@H](CC1CC1)C(=O)N1CCC[C@H]1c1nc2ccccc2[nH]1, the MIC falls from 0.2 µg/mL (≈ 0.56 µM) to 0.05 µg/mL (≈ 0.14 µM) (4-fold).

Going from CCCC[C@H](CN(O)C=O)C(=O)N1CCC[C@H]1C(=O)Nc1ccccn1 to COc1c(N2CCNC(C)C2)c(F)cc2c(=O)c(C(=O)O)cn(C3CC3)c12 (centres undefined) [GATIFLOXACIN], the MIC falls from 0.2 µg/mL (≈ 0.552 µM) to 0.07 µg/mL (≈ 0.186 µM) (2.9-fold).
